These results are taken from patent US20100029544A1, “Composition” (priority 2006, published 2010).

One data set has as its system Caco-2 cells. Kind of data set: Intracellular localisation study (PK4 fluorescence microscopy). Format: cell-based, human. To be noted: PK4 20 μM alone, 37° C. The text has this:
The intracellular polymer uptake was studied using an experimental anticancer drug named PK4 (bis-naphthalimidopropyl spermine). […] Due to the inherent fluorescence of PK4, the uptake of PK4 into cells can be visualised using Fluorescence Microscopy. Caco-2 cells (human colorectal cancer cells) were maintained in Dulbecco's Modified Eagle's Medium (DMEM) supplemented with 10% foetal calf serum (FCS), 1% non-essential amino acids and 1% L-glutamine and 1% penicillin/streptomycin at 10% CO2, 95% humidity and 37° C. […] The controls were 1) polymer only solutions (0.1 μml^−1), 2) PK4 only solutions (20 μM) and 3) medium. At specific time intervals the cells were photographed using a Leica DMRB fluorescence microscopy (Leica Microsystems, UK). The experiment above was repeated with the cells incubated at 4° C. instead of 37° C.

A short description of data set [1]: Loading of griseofulvin into QCPAA aggregates (solubilisation). Format: physicochemical. The settings on record: thermodynamic from solid; excess drug sonicated in distilled water, filtered; read-out: intrinsic (aqueous) solubility of griseofulvin. How it is done:
Drug loading was then achieved by probe sonication of the drugs in the presence of polymer aggregates in distilled water. Polymer, drug solutions with varying polymer: drug weight ratios were prepared. […] The aqueous solubility of griseofulvin was determined by sonicating excess drugs in distilled water. The solution was then filtered and analysed as described earlier. A griseofulvin calibration curve was prepared using various standard solutions (1-30 μgml^−1, R^2=0.993).

Data set [2] can be described thus: Loading of propofol into QCPAA or CePAA (solubilisation). How it is done: Drug loading was carried out as described above. To determine the concentration of encapsulated drug, the solutions were filtered (0.45 μm) and the filtrates were dissolved in methanol and subsequently analysed using an ultraviolet-visible spectrophotometer at the wavelength of 272 nm. A propofol calibration graph was prepared using various standard solutions (0.012-0.16 mgml^−1, R^2=0.998). The filtered formulations were sized using photon correlation spectroscopy and imaged by scanning electron microscopy (SEM).

The structures appear in SMILES notation. ≈ marks a conversion by molar mass, not a printed value.

`O=C1c2cccc3cccc(c23)C(=O)N1CCCNCCCNCCCCNCCCNCCCN1C(=O)c2cccc3cccc(c23)C1=O` [PK4, bis-naphthalimidopropyl spermine]: the “time until fluorescence was detected in cells” value with Caco-2 cells was determined as 4.5 h.
The term solubility denotes how much of the substance goes into solution per volume. In the case of `COC1=CC(=O)C[C@@H](C)[C@]12Oc1c(Cl)c(OC)cc(OC)c1C2=O` [griseofulvin], the solubility in data set [1] is 0.0483 ± 0.001 mg/mL (≈ 137 µM).
In data set [2], `CC(C)c1cccc(C(C)C)c1O` [propofol] registered a solubility of 0.112 mg/mL (≈ 628 µM).
